test system: Human immunodeficiency virus 1; experiment: Inhibition of HIV1 replication; type: functional, organism-based

EC50 | Compound
≥ 100 µM | O=c1cc(-c2ccc(O)c(O)c2)oc2ccccc12
≥ 100 µM | COc1ccc(-c2cc(=O)c3c(OC)c(OC)ccc3o2)cc1OC
≥ 100 µM | COc1ccc(-c2oc3cc(O)ccc3c(=O)c2OC)cc1
≥ 100 µM | O=c1cc(-c2ccccc2)oc2cc(O)ccc12 [7-HYDROXYFLAVONE]
≥ 100 µM | COc1ccc(-c2cc(=O)c3c(O)cc(O)cc3o2)cc1 [ACACETIN]
≥ 100 µM | O=c1cc(-c2ccc(O)cc2)oc2cc(O)cc(O)c12 [APIGENIN]
≥ 100 µM | O=c1cc(-c2ccccc2)oc2cc(O)cc(O)c12 [CHRYSIN]
< 100 µM | COc1c(O)cc2oc(-c3ccc(O)c(O)c3)cc(=O)c2c1O [EUPAFOLIN]
< 100 µM | O=c1c(O)c(-c2ccc(O)c(O)c2)oc2cc(O)ccc12 [FISETIN]
≥ 100 µM | COc1cc(O)c2c(=O)cc(-c3ccc(O)cc3)oc2c1 [GENKWANIN]
< 100 µM | O=c1c(O)c(-c2ccc(O)cc2)oc2cc(O)cc(O)c12 [KAEMPFEROL]
< 100 µM | O=c1c(O)c(-c2ccc(O)cc2O)oc2cc(O)cc(O)c12 [MORIN]
< 100 µM | O=c1c(O)c(-c2cc(O)c(O)c(O)c2)oc2cc(O)cc(O)c12 [MYRICETIN]
< 100 µM | O=c1c(O)c(-c2ccc(O)c(O)c2)oc2cc(O)c(O)c(O)c12 [QUERCETAGETIN]
< 100 µM | COc1cc(O)c2c(=O)c(O)c(-c3ccc(O)c(O)c3)oc2c1 [RHAMNETIN]
< 100 µM | O=c1c(O)c(-c2cc(O)c(O)c(O)c2)oc2cc(O)ccc12 [ROBINETIN]
≥ 100 µM | COc1ccc(-c2cc(=O)c3c(OC)c(OC)c(OC)cc3o2)cc1OC [SINENSETIN]
≥ 100 µM | COc1ccc(-c2cc(=O)c3c(OC)c(OC)c(OC)c(OC)c3o2)cc1 [TANGERETIN]

Compound | EC50
COc1ccc(-c2cc(=O)c3c(OC)c(OC)c(OC)cc3o2)cc1 | ≥ 100 µM
O=c1c(O)c(-c2ccc(O)c(O)c2)oc2cc(O)cc(O)c12 [QUERCETIN] | < 100 µM

— ChEMBL document CHEMBL1140603, “Simple criterion for selection of flavonoid compounds with anti-HIV activity” (Bioorg Med Chem Lett, 2007)
